From ChEMBL document CHEMBL1151471, “Vancomycin-resistant Staphylococcus aureus isolates associated with Inc18-like vanA plasmids in Michigan” (2008) come the findings set out here.

Converted amounts (≈) assume the structure as drawn.

What all share (format): functional
The subject of experiment [1] is Staphylococcus aureus. As to the kind of experiment: Antibacterial activity against vancomycin-resistant Staphylococcus aureus HIP14300 isolated from patients foot wound by broth microdilution method. Background: Dilution methods test growth across graded concentrations, often in twofold steps.
Experiment [2] deals with Enterococcus faecalis. The experiment in a line: Antibacterial activity against Enterococcus faecalis AIS2007003 isolated from patients rectum by broth microdilution method.
The test system of experiment [3] is Staphylococcus aureus. The experiment in a line: Antibacterial activity against vancomycin-resistant Staphylococcus aureus HIP15178 isolated from patients surgical wound by broth microdilution method.
Experiment [4] has as its system Enterococcus faecalis. The experiment in a line: Antibacterial activity against Enterococcus faecalis HIP15179 coisolated with vancomycin-resistant Staphylococcus aureus by broth microdilution method.
The test system of experiment [5] is Staphylococcus aureus. As to the kind of experiment: Antibacterial activity against vancomycin-resistant Staphylococcus aureus AIS2006032 isolated from patients foot wound by broth microdilution method.
For another experiment, the system named is Enterococcus avium. As to the kind of experiment: Antibacterial activity against Enterococcus avium AIS2007004 isolated from patients rectum by broth microdilution method.
Experiment [6] deals with Staphylococcus aureus. As to the kind of experiment: Antibacterial activity against vancomycin-resistant Staphylococcus aureus AIS2006049 isolated from patients arm wound by broth microdilution method.
The subject of experiment [7] is Enterococcus faecalis. The experiment in a line: Antibacterial activity against Enterococcus faecalis HIP14333 isolated from patients rectum by broth microdilution method.

In the case of `CCCCCCCCCC(=O)N[C@@H](Cc1c[nH]c2ccccc12)C(=O)N[C@H](CC(N)=O)C(=O)N[C@@H](CC(=O)O)C(=O)N[C@@H]1C(=O)NCC(=O)N[C@@H](CCCN)C(=O)N[C@@H](CC(=O)O)C(=O)N[C@H](C)C(=O)N[C@@H](CC(=O)O)C(=O)NCC(=O)N[C@H](CO)C(=O)N[C@@H]([C@H](C)CC(=O)O)C(=O)N[C@@H](CC(=O)c2ccccc2N)C(=O)O[C@@H]1C`, the MIC against Staphylococcus aureus [1] is not above 0.5 µg/mL; in the experiment on Enterococcus faecalis [2], 2 µg/mL (≈ 1.23 µM); against Staphylococcus aureus [3], not above 0.5 µg/mL; against Enterococcus faecalis [4] it was 1 µg/mL (≈ 0.617 µM); against Staphylococcus aureus [5], 1 µg/mL (≈ 0.617 µM); with Enterococcus avium, 1 µg/mL (≈ 0.617 µM). In the experiment on Staphylococcus aureus [6], this compound had an MIC of 2 µg/mL (≈ 1.23 µM).

Turning to `CCC[C@@H]1C[C@@H](C(=O)N[C@@H]([C@H]2O[C@H](SC)[C@H](O)[C@@H](O)[C@H]2O)[C@H](C)Cl)N(C)C1` [CLINDAMYCIN], the MIC in the experiment with Staphylococcus aureus [1], in the experiment on Staphylococcus aureus [3], with Staphylococcus aureus [5] and in the experiment with Staphylococcus aureus [6] was more than 16 µg/mL in each case.

On to `C[C@H]1c2cccc(O)c2C(=O)C2=C(O)[C@]3(O)C(=O)C(C(N)=O)=C(O)[C@@H](N(C)C)[C@@H]3[C@@H](O)[C@@H]21.O` [DOXYCYCLINE], for which the MIC against Staphylococcus aureus [1] was not above 0.25 µg/mL; in the experiment with Enterococcus faecalis [2], 4 µg/mL; against Enterococcus faecalis [7] it was 8 µg/mL; in the experiment on Staphylococcus aureus [3], not above 0.5 µg/mL; in the experiment with Enterococcus faecalis [4], not above 2 µg/mL; with Staphylococcus aureus [5], 1 µg/mL. Besides, the MIC is 8 µg/mL in the experiment on Enterococcus avium and not above 1 µg/mL against Staphylococcus aureus [6].

With `CC[C@H]1OC(=O)[C@H](C)[C@@H](O[C@H]2C[C@@](C)(OC)[C@@H](O)[C@H](C)O2)[C@H](C)[C@@H](O[C@@H]2O[C@H](C)C[C@H](N(C)C)[C@H]2O)[C@](C)(O)C[C@@H](C)C(=O)[C@H](C)[C@@H](O)[C@]1(C)O` [ERYTHROMYCIN], the MIC in the experiment with Staphylococcus aureus [1], against Enterococcus faecalis [2], in the experiment on Enterococcus faecalis [7], against Staphylococcus aureus [3], in the experiment on Enterococcus faecalis [4] and in the experiment with Staphylococcus aureus [5] was more than 8 µg/mL each time. In addition, the minimal inhibitory concentration (MIC) with Enterococcus avium and against Staphylococcus aureus [6] was more than 8 µg/mL throughout.

Consider `C[C@H]1COc2c(N3CCN(C)CC3)c(F)cc3c(=O)c(C(=O)O)cn1c23.C[C@H]1COc2c(N3CCN(C)CC3)c(F)cc3c(=O)c(C(=O)O)cn1c23.O` [LEVOFLOXACIN], for which the MIC in the experiment with Staphylococcus aureus [1] was more than 16 µg/mL; in the experiment with Enterococcus faecalis [2], more than 8 µg/mL; in the experiment with Enterococcus faecalis [7], more than 8 µg/mL; with Staphylococcus aureus [3], more than 16 µg/mL; in the experiment on Enterococcus faecalis [4] it was 8 µg/mL; with Staphylococcus aureus [5], more than 16 µg/mL. Also, the MIC with Enterococcus avium and in the experiment with Staphylococcus aureus [6] was 8 µg/mL in each case.

For `CC(=O)NC[C@H]1CN(c2ccc(N3CCOCC3)c(F)c2)C(=O)O1` [LINEZOLID], in the experiment on Enterococcus avium, the MIC is 2 µg/mL (≈ 5.93 µM).

Take `Cc1onc(-c2ccccc2)c1C(=O)N[C@@H]1C(=O)N2[C@@H]1SC(C)(C)[C@@H]2C(=O)O` [OXACILLIN]: the MIC against Staphylococcus aureus [1], against Staphylococcus aureus [3], in the experiment on Staphylococcus aureus [5] and against Staphylococcus aureus [6] was more than 16 µg/mL each time.

For `CO[C@H]1/C=C/O[C@@]2(C)Oc3c(C)c(O)c4c(O)c(c(/C=N/N5CCN(C)CC5)c(O)c4c3C2=O)NC(=O)/C(C)=C\C=C\[C@H](C)[C@H](O)[C@@H](C)[C@@H](O)[C@@H](C)[C@H](OC(C)=O)[C@@H]1C` [RIFAMPIN], the MIC against Staphylococcus aureus [1] was not above 0.5 µg/mL; against Enterococcus faecalis [2], 1 µg/mL (≈ 1.22 µM); in the experiment with Enterococcus faecalis [7], 1 µg/mL (≈ 1.22 µM); against Staphylococcus aureus [3] it was not above 0.5 µg/mL; in the experiment on Enterococcus faecalis [4] it was 2 µg/mL (≈ 2.43 µM); against Staphylococcus aureus [5] it was not above 0.5 µg/mL. Further, the results for the MIC in the experiment with Enterococcus avium and in the experiment on Staphylococcus aureus [6] were 1 µg/mL (≈ 1.22 µM) and not above 0.5 µg/mL, respectively.

In the case of `CN[C@@H]1[C@H](O[C@H]2[C@H](O[C@H]3[C@H](O)[C@@H](O)[C@H](N=C(N)N)[C@@H](O)[C@@H]3N=C(N)N)O[C@@H](C)[C@]2(O)C=O)O[C@@H](CO)[C@H](O)[C@H]1O` [STREPTOMYCIN], the MIC in the experiment with Enterococcus faecalis [2] is more than 1000 µg/mL; in the experiment on Enterococcus faecalis [7], not above 1000 µg/mL; with Enterococcus faecalis [4], more than 1000 µg/mL; in the experiment with Enterococcus avium, not above 1000 µg/mL.

Turning to `CN[C@H](CC(C)C)C(=O)N[C@H]1C(=O)N[C@@H](CC(N)=O)C(=O)N[C@H]2C(=O)N[C@H]3C(=O)N[C@H](C(=O)N[C@H](C(=O)O)c4cc(O)cc(O)c4-c4cc3ccc4O)[C@H](O)c3ccc(c(Cl)c3)Oc3cc2cc(c3O[C@@H]2O[C@H](CO)[C@@H](O)[C@H](O)[C@H]2O[C@H]2C[C@](C)(N)[C@H](O)[C@H](C)O2)Oc2ccc(cc2Cl)[C@H]1O` [VANCOMYCIN], the minimum inhibitory concentration (MIC) against Staphylococcus aureus [1] is 256 µg/mL (≈ 177 µM); in the experiment on Enterococcus faecalis [2], more than 512 µg/mL; against Enterococcus faecalis [7], 1020 µg/mL (≈ 707 µM); with Staphylococcus aureus [3] it was 512 µg/mL (≈ 353 µM); against Enterococcus faecalis [4], 512 µg/mL (≈ 353 µM); against Staphylococcus aureus [5] it was 1020 µg/mL (≈ 707 µM). Moreover, the MIC came to 256 µg/mL (≈ 177 µM) against Enterococcus avium and 512 µg/mL (≈ 353 µM) in the experiment with Staphylococcus aureus [6].

Take GENTAMICIN: the MIC against Staphylococcus aureus [1] is less than 2 µg/mL; in the experiment with Enterococcus faecalis [2] it was more than 500 µg/mL; with Enterococcus faecalis [7], more than 500 µg/mL; with Staphylococcus aureus [3], less than 2 µg/mL; against Enterococcus faecalis [4], more than 500 µg/mL; with Staphylococcus aureus [5] it was less than 2 µg/mL. For the same compound, the MIC is more than 500 µg/mL in the experiment with Enterococcus avium and less than 2 µg/mL in the experiment on Staphylococcus aureus [6].

As a reminder, the MIC is the lowest concentration found to suppress growth. A higher MIC goes with a need for much substance.
